Source: US20040167034A1, “Emulsion and dispersion formulations and method” (priority 2001, published 2004)

Assays:
[1] = background statement; cited from earlier work
[2] = Stability of closantel and levamisole combination at 30° C. (HPLC); format: physicochemical; settings: closantel and levamisole combination incubated at 30° C.
Description: Stability of Closantel and Levamisole Combination at 30° C.
The mixture was analysed by HPLC at times zero, 3 and 12 months.

[3] = Pharmacokinetics of silymarin (plasma silybin a and b, HPLC); settings: in vivo, 260 mg
Description: Pharmacokinetics of silymarin administered in various delivery systems, comparing a powdered extract of silymarin containing 28% silybin a and b and a silymarin:lecithin complex as described in Example 2 of silymarin containing the same amount of silybin a and b.
Silymarin was administered at a dose of 260 mg silybin a and b.
Blood samples were collected at 0, 2, 4, and 6 hours after administration and analysed by HPLC.
Silybin a and b were analysed as conjugated and unconjugated silybin a and b.

AUC of conjugated silybin A and B [3] | AUC of free silybin A and B [3] | Molecule | absorption [1] | content at 0 months [2] | content at 3 months [2] | content at 12 months [2]
 |  | [Cr] [chromium] | 1-3% |  |  | 
 |  | Cc1cc(C(C#N)c2ccc(Cl)cc2)c(Cl)cc1NC(=O)c1cc(I)cc(I)c1O (stereo not drawn) [closantel] |  | 3.75 g % | 3.72 g % | 3.69 g %
 |  | c1ccc([C@H]2CN3CCSC3=N2)cc1 [levamisole] |  | 3.21 g % | 3.19 g % | 3.17 g %
191 ng/h/mL | 6 ng/h/mL | Silymarin |  |  |  | 
